Publication PMC2580802 (Cell, 2008)
Values after ≈ are worked out from the molar mass of the structure shown. Like-named read-outs stand apart in the source and are kept apart here.

Key:
bacterial RNAP = conditions: read-out: IC50, inhibition of bacterial RNAP; cited from earlier work
[1] = tested on: Escherichia coli DH21tolC; conditions: ref Irschik et al., 1995; J.M. and R.H.E., unpublished; cited from earlier work
eukaryotic RNAP II = conditions: cited from earlier work
E. coli DH21f2tolC = assay type: cell-based; conditions: assessed with E. coli DH21f2tolC; J.M. and R.H.E., unpublished
Staphylococcus aureus = conditions: ref Irschik et al., 1995; J.M. and R.H.E., unpublished; cited from earlier work
wild-type RNAP [2] = biological target: T1, wild-type RNAP (Escherichia coli, UniProt P0A8T7+P0A8V2)
wild-type RNAP [3] = biological target: T1, wild-type RNAP; remark: listed apart in the source
[4] = tested on: E. coli with wild-type RNAP β′ and wild-type RNAP β; test: microbe, parasite or virus in culture; assay type: cell-based; conditions: Escherichia coli
[5] = tested on: E. coli mutants with single substitutions in RNAP β′ or β subunit; assay type: cell-based
[6] = biological target: T2, Myx^r RNAP ([Arg345]β′-RNAP) (Escherichia coli, UniProt P0A8T7+P0A8V2, K345R); assay type: biochemical, E. coli
Enterobacter cloacae = conditions: cited from earlier work
[7] = biological target: T. thermophilus RNAP holoenzyme (Thermus thermophilus, UniProt Q8RQE8+Q8RQE9); assay type: biochemical; conditions: read-out: IC50, inhibition of T. thermophilus RNAP holoenzyme
[8] = biological target: T2, Myx^r RNAP ([Arg345]β′-RNAP)

SMILES	IC50 (bacterial RNAP) [µM]	MIC [1] [µg/mL]	inhibition of eukaryotic RNAP II (eukaryotic RNAP II)	bacteriocidal activity (E. coli DH21f2tolC)	MIC (Staphylococcus aureus) [µg/mL]	effect on transcription initiation (wild-type RNAP [2])	effect on interaction of RNAP with promoter DNA (wild-type RNAP [3])	MIC [4] [µg/mL]	increase in MIC ([5]; all four Myx^r mutants from random mutagenesis (Table S1)) [fold]	increase in MIC ([5]; three of four Myx^r mutants from random mutagenesis (Table S1)) [fold]	inhibition of transcription with Myx^r RNAP [6]	MIC (Enterobacter cloacae) [µg/mL]	IC50 [7] [µM]	inhibition of open-complex formation with Myx^r RNAP [8]	IC50 (wild-type RNAP [2]; read-out: IC50, inhibition of formation of abortive products, run-off transcription, promoter DNA fragment) [µM]	inhibition of formation of stable, heparin-resistant RNAP-DNA complex (wild-type RNAP [3]; fork-junction DNA fragment (lacks positions −11 to +15 of template strand))	inhibition of formation of stable, heparin-resistant RNAP-DNA complexes (wild-type RNAP [3]; nontemplate-strand oligonucleotide (positions −21 to +15))	IC50 (wild-type RNAP [3]; read-out: IC50, inhibition of formation of stable, heparin-resistant RNAP-promoter open complex, promoter DNA fragment) [µM]	cross-resistance of Myx^r mutants ([5]; Myx^r mutants (Table 1))
C/C(=C\Cc1ccccc1)CC[C@@]1(O)C[C@H]2C[C@@H](C/C(C)=C/C/C=C/C/C(CC(=O)O)=C\C(=O)O2)O1 [Rip, ripostatin A]	~0.8	≤ 1	does not inhibit	bacteriocidal	≤ 1	inhibits transcription initiation	prevents interaction of RNAP with promoter DNA	–	–	–	–	–	–	–	–	–	–	–	–
C/C=C/C/C=C(\C)C(O)CC/C(C)=C/C=C(\C)C(=O)c1c(O)cc([C@H](C)CC/C=C/NC(=O)OC)oc1=O (stereo partly shown) [Cor, corallopyronin A]	~4	–	does not inhibit	bacteriocidal	–	inhibits transcription initiation	prevents interaction of RNAP with promoter DNA	1.6 (≈ 3.03 µM)	–	–	–	–	–	–	–	–	–	–	–
CCC/C(C)=C/C=C(\C)C(=O)c1c(O)cc([C@H](C)CC/C=C/NC(=O)OC)oc1=O [Myx, myxopyronin A]	~1	–	does not inhibit	bacteriocidal	–	–	–	–	≥ 2	≥ 32	abrogates inhibition	≤ 12.5	20	abrogates inhibition	1.7 ± 0.6	does not inhibit	does not inhibit	0.8 ± 0.3	–
CO[C@H]1/C=C/O[C@@]2(C)Oc3c(C)c(O)c4c(O)c(c(/C=N/N5CCN(C)CC5)c(O)c4c3C2=O)NC(=O)/C(C)=C\C=C\[C@H](C)[C@H](O)[C@@H](C)[C@@H](O)[C@@H](C)[C@H](OC(C)=O)[C@@H]1C [Rif, rifampicin]	–	–	–	–	–	–	–	0.1 (≈ 0.122 µM)	–	–	–	–	–	–	–	–	–	–	do not exhibit cross-resistance
